Test results as given in patent US20230192617A1, “AZABICYCLIC(THIO)AMIDES AS FUNGICIDAL COMPOUNDS” (Bayer CropScience Aktiengesellschaft, priority 2020, published 2023).

Assays:
[1] = tested on: Botrytis cinerea; assay: In vivo preventive test on Botrytis cinerea (grey mould); conditions: 500 ppm of active ingredient, preventive spray on gherkin or cabbage, evaluated 4 to 5 days after inoculation, read-out: efficacy
Procedure: B-2. In Vivo Preventive Test on Botrytis cinerea (Grey Mould) [table] The active ingredients were made soluble and homogenized in a mixture of Dimethyl sulfoxide/Acetone/Tween® 80 and then diluted in water to the desired concentration. The young plants of gherkin or cabbage were treated by spraying the active ingredient prepared as described above. Control plants were treated only with an aqueous solution of Acetone/Dimethyl sulfoxide/Tween® 80. After 24 hours, the plants were contaminated by spraying the leaves with an aqueous suspension of Botrytis cinerea spores. The contaminated gherkin plants were incubated for 4 to 5 days at 17° C. and at 90% relative humidity. The contaminated cabbage plants were incubated for 4 to 5 days at 20° C. and at 100% relative humidity.

[2] = Measurement of Log P values by HPLC on reversed phase columns (EEC directive 79/831 Annex V.A8); format: physicochemical; conditions: reversed phase HPLC column, method [a]: LC-UV, acidic range, 0.1% formic acid in water and acetonitrile as eluent
Procedure: A-1.1. Measurement of Log P Values
Measurement of Log P values as provided herein was performed according to EEC directive 79/831 Annex V.A8 by HPLC (High Performance Liquid Chromatography) on reversed phase columns with the following methods:
^[a] Log P value is determined by measurement of LC-UV, in an acidic range, with 0.1% formic acid in water and acetonitrile as eluent (linear gradient from 10% acetonitrile to 95% acetonitrile).
^[b] Log P value is determined by measurement of LC-UV, in a neutral range, with 0.001 molar ammonium acetate solution in water and acetonitrile as eluent (linear gradient from 10% acetonitrile to 95% acetonitrile).
^[c] Log P value is determined by measurement of LC-UV, in an acidic range, with 0.1% phosphoric acid and acetonitrile as eluent (linear gradient from 10% acetonitrile to 95% acetonitrile).
If more than one Log P value is available within the same method, all the values are given and separated by “+”. […]

[3] = tested on: Alternaria alternata; assay: Alternaria alternata in vitro cell test; format: cell-based; conditions: 120 h, 20 ppm of active ingredient, liquid culture, 5 days incubation, spectrometric measurement of mycelium growth, read-out: efficacy (inhibition of fungal growth)
Procedure: (§1) B-6. Alternaria alternata In Vitro Cell Test [table] Fungicides were solubilized in DMSO and the solution used to prepare the required range of concentrations. The final concentration of DMSO used in the assay was ≤1%. A spore suspension of A. alternata was prepared and diluted to the desired spore density. Fungicides were evaluated for their ability to inhibit spore germination and mycelium growth in liquid culture assay. The compounds were added in the desired concentration to the culture medium with spores. After 5 days incubation, fungi-toxicity of compounds was determined by spectrometric measurement of mycelium growth. Inhibition of fungal growth was determined by comparing the absorbance values in wells containing the fungicides with the absorbance in control wells without fungicides.

[4] = tested on: Colletotrichum lindemuthianum; assay: B-8. Colletotrichum lindemuthianum in vitro cell test; format: cell-based; conditions: 144 h, 20 ppm of active ingredient, 6 days incubation, liquid culture, absorbance, read-out: efficacy (inhibition of fungal growth)
Procedure: as §1, with “B-8. Colletotrichum lindemuthianum In” for “B-6. Alternaria alternata In”, “of C. lindemuthianum” for “of A. alternata”, “inhibit spores” for “inhibit spore”, “After 6” for “After 5”

[5] = tested on: Alternaria brassicae; assay: In vivo preventive test on Alternaria brassicae (leaf spot on radish or cabbage); conditions: 500 ppm of active ingredient, preventive spray on radish or cabbage, evaluated 3 to 4 days after inoculation, read-out: efficacy
Procedure: B-1. In Vivo Preventive Test on Alternaria brassicae (Leaf Spot on Radish or Cabbage) [table] The active ingredients were made soluble and homogenized in a mixture of Dimethyl sulfoxide/Acetone/Tween® 80 and then diluted in water to the desired concentration. The young plants of radish or cabbage were treated by spraying the active ingredient prepared as described above. Control plants were treated only with an aqueous solution of Acetone/Dimethyl sulfoxide/Tween® 80. After 24 hours, the plants were contaminated by spraying the leaves with an aqueous suspension of Alternaria brassicae spores. The contaminated radish or cabbage plants were incubated for 3 to 4 days at 20° C. and at 100% relative humidity.

[6] = tested on: Pyrenophora teres; assay: B-10. Pyrenophora teres in vitro cell test; format: cell-based; conditions: 144 h, 20 ppm of active ingredient, 6 days incubation, liquid culture, absorbance, read-out: efficacy (inhibition of fungal growth)
Procedure: as §1, with “B-10. Pyrenophora teres” for “B-6. Alternaria alternata”, “P. teres” for “A. alternata”, “6” for “5”

[7] = tested on: Botrytis cinerea; assay: B-11. Botrytis cinerea in vitro cell test; format: cell-based; conditions: 144 h, 20 ppm of active ingredient, 6 days incubation, liquid culture, absorbance, read-out: efficacy (inhibition of fungal growth)
Procedure: as §1, with “B-11. Botrytis cinerea” for “B-6. Alternaria alternata”, “B. cinerea” for “A. alternata”, “6” for “5”

SMILES | chromatographic logP [2] | pest or weed control at 500 ppm [1] | inhibition at 20 ppm [3] | inhibition at 20 ppm [4] | pest or weed control at 500 ppm [5] | inhibition at 20 ppm [6] | inhibition at 20 ppm [7]
C[C@H](NC(=O)c1c(Oc2cccc(Cl)c2)nnc2ccccc12)c1cccc(C(F)(F)F)c1 (racemic) [I-016] | 3.9 | 90 to 100% | 80 to 89% | 80 to 89% | 90 to 100% |  | 
C[C@H](NC(=O)c1c(Oc2cccc(C(F)(F)F)c2)nnc2ccccc12)c1cccc(C(F)(F)F)c1 (racemic) [I-022] | 4.03 | 90 to 100% | 80 to 89% | 70 to 79% |  |  | 
O=C(N[C@H]1CCCc2cc(Cl)sc21)c1c(Oc2cccc(C(F)(F)F)c2)cnc2ccccc12 (racemic) [I-040] | 4.54 | 80 to 89% | 90 to 100% | 90 to 100% |  |  | 
O=C(NC[C@@H](F)c1ccc(Cl)c(Cl)c1)c1c(Oc2cccc(Cl)c2)nnc2ccccc12 (racemic) [I-051] | 4.23 |  | 90 to 100% | 90 to 100% | 70 to 79% |  | 
Cc1ccc(C(F)(F)F)cc1Oc1nnc2ccccc2c1C(=O)NC[C@H](F)c1ccc(Cl)cc1Cl (racemic) [I-183] | 4.74 |  |  |  |  | 70 to 79% | 
O=C(N/C=C\c1ccccc1)c1c(Oc2cccc(C(F)(F)F)c2)cnc2ccccc12 [I-001] | 4.17 | 90 to 100% | 70 to 79% |  |  |  | 
Cc1ccc(CCNC(=O)c2c(Oc3cccc(C(F)(F)F)c3)nnc3cc(F)ccc23)c(C)c1 [I-007] | 4.4 | 90 to 100% | 90 to 100% | 90 to 100% |  |  | 
COc1ccc2c(C(=O)NCCc3ccc(C)cc3C)c(Oc3cccc(C(F)(F)F)c3)nnc2c1 [I-009] | 4.3 |  | 90 to 100% |  |  |  | 
Cc1ccc(CCNC(=O)c2c(Oc3cccc(C(F)(F)F)c3)nnc3cnccc23)c(C)c1 [I-011] | 3.88 | 90 to 100% | 90 to 100% |  | 80 to 89% |  | 
O=C(NCC(F)(F)c1ccc(Br)cc1Cl)c1c(Oc2cccc(Cl)c2)nnc2ccccc12 [I-013] | 4.46 | 90 to 100% | 90 to 100% | 90 to 100% | 90 to 100% |  | 
O=C(NCC(F)(F)c1ccc(Br)cc1Cl)c1c(Oc2ccc(Cl)cc2)nnc2ccccc12 [I-019] | 4.46 | 90 to 100% | 80 to 89% |  | 70 to 79% |  | 
O=C(NCC(F)(F)c1ccc(Cl)cn1)c1c(Oc2cccc(C(F)F)c2)nnc2ccccc12 [I-036] | 3.2 | 90 to 100% | 90 to 100% | 90 to 100% | 90 to 100% |  | 
O=C(NCC(F)(F)c1ccc(Cl)cc1)c1c(Oc2cccc(C(F)(F)F)c2)cnc2ccccc12 [I-037] | 4.23 | 80 to 89% |  | 90 to 100% |  |  | 90 to 100%
COc1cc(OC)nc(Oc2cnc3ccccc3c2C(=O)NCC(F)(F)c2ccc(C)cc2C)n1 [I-187] | 3.74 |  | 70 to 79% |  |  | 90 to 100% | 

More lines, main results first:

chromatographic logP [2] | SMILES | pest or weed control at 500 ppm [1] | inhibition at 20 ppm [3] | inhibition at 20 ppm [4] | pest or weed control at 500 ppm [5] | inhibition at 20 ppm [6] | inhibition at 20 ppm [7]
3.65 | N#Cc1cccc(Oc2nnc3ccccc3c2C(=O)NC[C@H](F)c2ccc(Br)cc2Cl)c1 (racemic) [I-031] | 90 to 100% | 90 to 100% | 90 to 100% | 90 to 100% |  | 
3.69 | O=C(N[C@H]1CCOc2ccc(F)cc21)c1c(Oc2cccc(C(F)(F)F)c2)nnc2ccccc12 (racemic) [I-165] |  |  |  |  | 90 to 100% | 
4.88 | Cc1ccc2c(C(=O)N[C@H]3CCCc4cc(Br)ccc43)c(Oc3cccc(C(F)(F)F)c3)nnc2c1 (racemic) [I-181] |  | 80 to 89% |  |  |  | 
4.69 | Cc1ccc(CCNC(=O)c2c(Oc3cccc(C(F)(F)F)c3)nnc3c(C)cccc23)c(C)c1 [I-005] | 90 to 100% | 90 to 100% | 80 to 89% |  |  | 
3.96 | O=C(NCC(F)(F)c1ccc(Cl)cc1)c1c(Oc2ccc(Cl)cc2)nnc2ccccc12 [I-018] | 90 to 100% | 80 to 89% |  |  |  | 
3.58 | Cc1ccc(C(F)(F)CNC(=O)c2c(Oc3cccc(C#N)c3)nnc3ccccc23)c(C)c1 [I-030] | 90 to 100% | 90 to 100% | 90 to 100% |  |  | 
3.77 | N#Cc1cccc(Oc2nnc3ccccc3c2C(=O)NCC(F)(F)c2ccc(Br)cc2Cl)c1 [I-032] | 90 to 100% | 90 to 100% | 90 to 100% |  |  | 
4.64 | Cc1ccc2c(C(=O)NCC(F)(F)c3ccc(Br)cc3Cl)c(Oc3cccc(C(F)(F)F)c3)nnc2c1 [I-045] | 90 to 100% | 90 to 100% | 90 to 100% | 90 to 100% |  | 
3.07 | N#Cc1ccc(CONC(=O)c2c(Oc3cccc(C(F)(F)F)c3)nnc3ccccc23)cc1 [I-088] |  |  | 90 to 100% |  |  | 90 to 100%
5.01 | Cc1ccc(C(F)(F)CNC(=S)c2c(Oc3cccc(Cl)c3)nnc3ccccc23)c(C)c1 [I-158, 3-(3-chlorophenoxy)-N-[2-(2,4-dimethylphenyl)-2,2-difluoro-ethyl]cinnoline-4-carbothioamide] |  | 90 to 100% | 90 to 100% | 90 to 100% |  | 
3.33 | N#Cc1cccc(Oc2nnc3ccccc3c2C(=O)NCC(F)(F)c2ccc(Cl)cc2)c1 [I-160] |  | 90 to 100% | 90 to 100% | 80 to 89% |  | 
4.86 | CC(C)CON(Cc1ccccc1)C(=O)c1c(Oc2cccc(C(F)(F)F)c2)nnc2ccccc12 [I-170] |  |  | 70 to 79% |  |  | 90 to 100%
3.22 | O=C(NCCc1cnc(C(F)(F)F)nc1)c1c(Oc2cccc(C(F)(F)F)c2)nnc2ccccc12 [I-195] |  |  |  |  | 90 to 100% | 
